Measurements from PubChem BioAssay (NCI).
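Dose response: 5 concentrations. Exposure: 48 h. Format: 96-well plates. Endpoint: linear interpolation; highest concentration if not reached. TGI marks complete inhibition of growth.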

How the values were obtained:
Assay in all cases: NCI anticancer screen, dose series, 48 h
HOP-18 NSCLC = tested on: HOP-18 NSCLC
UO-31 renal = tested on: UO-31 renal
HOP-92 NSCLC = tested on: HOP-92 NSCLC
CCRF-CEM leukemia = tested on: CCRF-CEM leukemia
LOX IMVI melanoma = tested on: LOX IMVI melanoma
SK-MEL-2 melanoma = tested on: SK-MEL-2 melanoma
TK-10 renal = tested on: TK-10 renal
COLO 205 colon = tested on: COLO 205 colon
M19-MEL melanoma = tested on: M19-MEL melanoma
SF-539 CNS = tested on: SF-539 CNS
UACC-62 melanoma = tested on: UACC-62 melanoma
NCI-H460 lung = tested on: NCI-H460 lung
OVCAR-8 ovarian = tested on: OVCAR-8 ovarian
NCI-H522 lung = tested on: NCI-H522 lung
KM12 colon = tested on: KM12 colon
SR leukemia = tested on: SR leukemia
OVCAR-4 ovarian = tested on: OVCAR-4 ovarian
HCT-116 colon = tested on: HCT-116 colon
OVCAR-3 ovarian = tested on: OVCAR-3 ovarian
DMS 273 small cell lung = tested on: DMS 273 small cell lung
SK-MEL-5 melanoma = tested on: SK-MEL-5 melanoma
IGROV1 ovarian = tested on: IGROV1 ovarian
SNB-75 CNS = tested on: SNB-75 CNS
HT29 colon = tested on: HT29 colon
SNB-19 CNS = tested on: SNB-19 CNS
EKVX NSCLC = tested on: EKVX NSCLC
K-562 leukemia = tested on: K-562 leukemia
A498 renal = tested on: A498 renal
M14 melanoma = tested on: M14 melanoma
786-0 renal = tested on: 786-0 renal
SNB-78 CNS = tested on: SNB-78 CNS
NCI-H226 lung = tested on: NCI-H226 lung
SK-OV-3 ovarian = tested on: SK-OV-3 ovarian
SF-295 CNS = tested on: SF-295 CNS
UACC-257 melanoma = tested on: UACC-257 melanoma
ACHN renal = tested on: ACHN renal
HCC-2998 colon = tested on: HCC-2998 colon
HOP-62 NSCLC = tested on: HOP-62 NSCLC
SF-268 CNS = tested on: SF-268 CNS
MALME-3M melanoma = tested on: MALME-3M melanoma
XF 498 CNS = tested on: XF 498 CNS
SW-620 colon = tested on: SW-620 colon
RPMI-8226 leukemia = tested on: RPMI-8226 leukemia
A549 NSCLC = tested on: A549 NSCLC
SK-MEL-28 melanoma = tested on: SK-MEL-28 melanoma
U251 CNS = tested on: U251 CNS
SN12C renal = tested on: SN12C renal
CAKI-1 renal = tested on: CAKI-1 renal
RXF 393 renal = tested on: RXF 393 renal
DMS 114 small cell lung = tested on: DMS 114 small cell lung
LXFL 529 NSCLC = tested on: LXFL 529 NSCLC
NCI-H23 lung = tested on: NCI-H23 lung
DLD-1 colon = tested on: DLD-1 colon
MOLT-4 leukemia = tested on: MOLT-4 leukemia
HCT-15 colon = tested on: HCT-15 colon
KM20L2 colon = tested on: KM20L2 colon
HL-60(TB) leukemia = tested on: HL-60(TB) leukemia
OVCAR-5 ovarian = tested on: OVCAR-5 ovarian
RXF-631 renal = tested on: RXF-631 renal

For `O=C(c1ccccc1)c1cccc(C(=O)c2ccccc2)c1`, the TGI (HOP-18 NSCLC) was greater than 100 µM, the TGI (UO-31 renal) was greater than 100 µM and the TGI (HOP-92 NSCLC) was greater than 100 µM. For the same molecule, the TGI (CCRF-CEM leukemia) was greater than 100 µM, the TGI (LOX IMVI melanoma) was greater than 100 µM and the TGI (SK-MEL-2 melanoma) was greater than 100 µM. The TGI (TK-10 renal) was greater than 100 µM, the TGI (COLO 205 colon) was greater than 100 µM and the TGI (M19-MEL melanoma) was greater than 100 µM. It also gave a TGI (SF-539 CNS) greater than 100 µM, a TGI (UACC-62 melanoma) greater than 100 µM and a TGI (NCI-H460 lung) greater than 100 µM. For the same molecule, the TGI (OVCAR-8 ovarian) was greater than 100 µM, the TGI (NCI-H522 lung) was greater than 100 µM and the TGI (KM12 colon) was greater than 100 µM. It also gave a TGI (SR leukemia) greater than 100 µM, a TGI (OVCAR-4 ovarian) greater than 100 µM and a TGI (HCT-116 colon) greater than 100 µM. It also gave a TGI (OVCAR-3 ovarian) greater than 100 µM, a TGI (DMS 273 small cell lung) greater than 100 µM and a TGI (SK-MEL-5 melanoma) greater than 100 µM. It also gave a TGI (IGROV1 ovarian) greater than 100 µM, a TGI (SNB-75 CNS) greater than 100 µM and a TGI (HT29 colon) greater than 100 µM. The TGI (SNB-19 CNS) was greater than 100 µM, the TGI (EKVX NSCLC) was greater than 100 µM and the TGI (K-562 leukemia) was greater than 100 µM. The TGI (A498 renal) was greater than 100 µM, the TGI (M14 melanoma) was greater than 100 µM and the TGI (786-0 renal) was greater than 100 µM. It also gave a TGI (SNB-78 CNS) greater than 100 µM, a TGI (NCI-H226 lung) greater than 100 µM and a TGI (SK-OV-3 ovarian) greater than 100 µM. It also gave a TGI (SF-295 CNS) greater than 100 µM, a TGI (UACC-257 melanoma) greater than 100 µM and a TGI (ACHN renal) greater than 100 µM. The TGI (HCC-2998 colon) was greater than 100 µM, the TGI (HOP-62 NSCLC) was greater than 100 µM and the TGI (SF-268 CNS) was greater than 100 µM. The TGI (MALME-3M melanoma) was greater than 100 µM, the TGI (XF 498 CNS) was greater than 100 µM and the TGI (SW-620 colon) was greater than 100 µM. The TGI (RPMI-8226 leukemia) was greater than 100 µM, the TGI (A549 NSCLC) was greater than 100 µM and the TGI (SK-MEL-28 melanoma) was greater than 100 µM. The TGI (U251 CNS) was greater than 100 µM, the TGI (SN12C renal) was greater than 100 µM and the TGI (CAKI-1 renal) was greater than 100 µM. The TGI (RXF 393 renal) was greater than 100 µM, the TGI (DMS 114 small cell lung) was greater than 100 µM and the TGI (LXFL 529 NSCLC) was greater than 100 µM. It also gave a TGI (NCI-H23 lung) greater than 100 µM, a TGI (DLD-1 colon) greater than 100 µM and a TGI (MOLT-4 leukemia) greater than 100 µM.
With `O=CC1CCCc2ccccc21` (stereo not drawn) the TGI (HOP-18 NSCLC) was greater than 100 µM, the TGI (UO-31 renal) was greater than 100 µM and the TGI (HOP-92 NSCLC) was greater than 100 µM. It also gave a TGI (CCRF-CEM leukemia) greater than 72 µM, a TGI (LOX IMVI melanoma) greater than 62.4 µM and a TGI (SK-MEL-2 melanoma) greater than 100 µM. For the same molecule, the TGI (TK-10 renal) was greater than 100 µM, the TGI (COLO 205 colon) was greater than 61.4 µM and the TGI (M19-MEL melanoma) was greater than 100 µM. The TGI (UACC-62 melanoma) was greater than 100 µM, the TGI (NCI-H460 lung) was greater than 100 µM and the TGI (OVCAR-8 ovarian) was greater than 100 µM. The TGI (NCI-H522 lung) was greater than 100 µM, the TGI (KM12 colon) was greater than 100 µM and the TGI (SR leukemia) was greater than 100 µM. The TGI (OVCAR-4 ovarian) was greater than 100 µM, the TGI (HCT-116 colon) was greater than 77.2 µM and the TGI (HCT-15 colon) was greater than 91.6 µM. The TGI (OVCAR-3 ovarian) was greater than 100 µM, the TGI (DMS 273 small cell lung) was greater than 100 µM and the TGI (SK-MEL-5 melanoma) was greater than 100 µM. The TGI (IGROV1 ovarian) was greater than 100 µM, the TGI (KM20L2 colon) was greater than 100 µM and the TGI (SNB-75 CNS) was greater than 100 µM. For the same molecule, the TGI (HT29 colon) was greater than 100 µM, the TGI (HL-60(TB) leukemia) was greater than 100 µM and the TGI (SNB-19 CNS) was greater than 100 µM. For the same molecule, the TGI (EKVX NSCLC) was greater than 100 µM, the TGI (K-562 leukemia) was greater than 100 µM and the TGI (A498 renal) was greater than 100 µM. The TGI (M14 melanoma) was greater than 100 µM, the TGI (786-0 renal) was greater than 100 µM and the TGI (SNB-78 CNS) was greater than 100 µM. The TGI (NCI-H226 lung) was greater than 100 µM, the TGI (SK-OV-3 ovarian) was greater than 100 µM and the TGI (OVCAR-5 ovarian) was greater than 100 µM. The TGI (SF-295 CNS) was greater than 100 µM, the TGI (UACC-257 melanoma) was greater than 100 µM and the TGI (ACHN renal) was greater than 100 µM. It also gave a TGI (HCC-2998 colon) greater than 100 µM, a TGI (HOP-62 NSCLC) greater than 100 µM and a TGI (SF-268 CNS) greater than 31.6 µM. The TGI (MALME-3M melanoma) was greater than 100 µM, the TGI (XF 498 CNS) was greater than 100 µM and the TGI (SW-620 colon) was greater than 56.6 µM. The TGI (RPMI-8226 leukemia) was greater than 65.8 µM, the TGI (A549 NSCLC) was greater than 100 µM and the TGI (SK-MEL-28 melanoma) was greater than 100 µM. It also gave a TGI (U251 CNS) greater than 59.4 µM, a TGI (SN12C renal) greater than 100 µM and a TGI (CAKI-1 renal) greater than 100 µM. It also gave a TGI (RXF 393 renal) greater than 100 µM, a TGI (DMS 114 small cell lung) greater than 71.4 µM and a TGI (LXFL 529 NSCLC) greater than 100 µM. It also gave a TGI (NCI-H23 lung) greater than 100 µM, a TGI (DLD-1 colon) greater than 63.8 µM and a TGI (MOLT-4 leukemia) greater than 100 µM.
Work on `COc1ccc(C(=O)C(c2ccc(OC)cc2)C2(O)C(=O)Nc3c2ccc(Cl)c3C)cc1` (stereo not drawn) yielded a TGI (HOP-18 NSCLC) greater than 100 µM, a TGI (UO-31 renal) greater than 100 µM and a TGI (CCRF-CEM leukemia) greater than 100 µM. It also gave a TGI (LOX IMVI melanoma) greater than 100 µM, a TGI (SK-MEL-2 melanoma) greater than 100 µM and a TGI (TK-10 renal) greater than 100 µM. It also gave a TGI (COLO 205 colon) greater than 100 µM, a TGI (M19-MEL melanoma) greater than 100 µM and a TGI (UACC-62 melanoma) greater than 100 µM. For the same molecule, the TGI (NCI-H460 lung) was greater than 100 µM, the TGI (OVCAR-8 ovarian) was greater than 100 µM and the TGI (RXF-631 renal) was greater than 100 µM. The TGI (NCI-H522 lung) was greater than 100 µM, the TGI (KM12 colon) was greater than 100 µM and the TGI (OVCAR-4 ovarian) was greater than 100 µM. For the same molecule, the TGI (HCT-116 colon) was greater than 100 µM, the TGI (HCT-15 colon) was greater than 100 µM and the TGI (OVCAR-3 ovarian) was greater than 100 µM. It also gave a TGI (SK-MEL-5 melanoma) greater than 100 µM, a TGI (IGROV1 ovarian) greater than 100 µM and a TGI (KM20L2 colon) greater than 100 µM. It also gave a TGI (SNB-75 CNS) greater than 100 µM, a TGI (HT29 colon) greater than 100 µM and a TGI (HL-60(TB) leukemia) greater than 100 µM. The TGI (SNB-19 CNS) was greater than 100 µM, the TGI (EKVX NSCLC) was greater than 100 µM and the TGI (K-562 leukemia) was greater than 100 µM. The TGI (A498 renal) was greater than 100 µM, the TGI (M14 melanoma) was greater than 100 µM and the TGI (786-0 renal) was greater than 100 µM. It also gave a TGI (SNB-78 CNS) greater than 100 µM, a TGI (NCI-H226 lung) greater than 100 µM and a TGI (SK-OV-3 ovarian) greater than 100 µM. For the same molecule, the TGI (OVCAR-5 ovarian) was greater than 100 µM, the TGI (SF-295 CNS) was greater than 100 µM and the TGI (UACC-257 melanoma) was greater than 100 µM. The TGI (ACHN renal) was greater than 100 µM, the TGI (HCC-2998 colon) was greater than 100 µM and the TGI (HOP-62 NSCLC) was greater than 100 µM. It also gave a TGI (SF-268 CNS) greater than 100 µM, a TGI (MALME-3M melanoma) greater than 100 µM and a TGI (SW-620 colon) greater than 100 µM. For the same molecule, the TGI (RPMI-8226 leukemia) was greater than 100 µM, the TGI (A549 NSCLC) was greater than 100 µM and the TGI (SK-MEL-28 melanoma) was greater than 100 µM. It also gave a TGI (U251 CNS) greater than 100 µM, a TGI (SN12C renal) greater than 100 µM and a TGI (RXF 393 renal) greater than 100 µM. It also gave a TGI (DMS 114 small cell lung) greater than 100 µM, a TGI (LXFL 529 NSCLC) greater than 100 µM and a TGI (NCI-H23 lung) greater than 100 µM. For the same molecule, the TGI (MOLT-4 leukemia) was greater than 100 µM.
